According to publication PMC8086144, “A novel peptide antagonist of the human growth hormone receptor” (The Journal of Biological Chemistry, 2021):

Target: T1, mouse GHR (Mus musculus, UniProt P16882)
T1 construct: the mouse L fibroblasts express high levels of mouse GHR; host or cells: mouse L fibroblasts
T1 sequence (P16882 25-650): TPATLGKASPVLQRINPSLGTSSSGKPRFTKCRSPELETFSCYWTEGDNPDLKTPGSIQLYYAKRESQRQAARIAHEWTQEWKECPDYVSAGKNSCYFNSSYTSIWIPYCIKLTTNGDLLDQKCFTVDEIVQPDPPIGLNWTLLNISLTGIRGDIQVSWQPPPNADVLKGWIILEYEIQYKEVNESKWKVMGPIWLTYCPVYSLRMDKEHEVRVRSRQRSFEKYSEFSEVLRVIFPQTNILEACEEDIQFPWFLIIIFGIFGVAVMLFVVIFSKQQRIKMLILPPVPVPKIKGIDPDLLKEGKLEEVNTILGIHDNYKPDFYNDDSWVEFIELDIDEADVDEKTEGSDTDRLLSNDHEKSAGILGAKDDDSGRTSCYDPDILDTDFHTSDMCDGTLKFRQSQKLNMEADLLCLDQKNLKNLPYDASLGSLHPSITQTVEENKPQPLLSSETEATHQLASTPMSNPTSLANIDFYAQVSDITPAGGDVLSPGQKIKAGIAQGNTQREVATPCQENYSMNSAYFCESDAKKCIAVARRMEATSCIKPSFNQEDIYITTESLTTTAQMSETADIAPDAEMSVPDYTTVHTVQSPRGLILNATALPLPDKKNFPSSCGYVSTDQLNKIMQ
Assay: hGH-mediated pSTAT5 in L (mouse fibroblast) cells, Western blot
Type: cell-based
Conditions: 200 nM S1H with 2.5 nM hGH, 20 min, Western blot densitometry, n = 3
Experimental: SK-MEL-28, MALME-3M, and T84 cells were grown and maintained in Eagle's Minimal Essential Medium. IM9 and L cells were grown in RPMI-1640 media and Dulbecco's modified Eagle's medium, respectively. All growth media was supplemented with 10% fetal bovine serum and 1× antibiotic-antimycotic […] solution. Cells were grown at 37 °C under a 5% CO2 atmosphere in a humidified incubator, and growth media was replaced every 48 h during incubation. No hGH was present in or added to the growth media unless specifically indicated. […]
Following treatment, the cells were harvested at the indicated time points, and the total protein was extracted. […] Sample protein concentration was quantified using a Bradford assay with bovine serum albumin as the protein standard. Absorbance at 595 nm was measured using a Spectramax 250 multimode plate reader (Molecular Devices) and processed using SoftmaxPro v4.7.1 software.
Cytosolic fractions from treated cells were thawed on ice, and 80 μg protein was loaded onto polyacrylamide gels for separation by SDS-PAGE. […] Chemiluminescence signals were detected using a GelDoc (BioRad) fluorescence imager. […] Percent inhibition was then measured by subtracting the pSTAT5 band intensity in each lane from the pSTAT5 band intensity of hGH-treated samples. […]

suppression of hGH-mediated pSTAT5: 36%
Structure (SMILES): CC[C@H](C)[C@H](NC(=O)[C@H](Cc1ccc(O)cc1)NC(C)=O)C(=O)N1CCC[C@H]1C(=O)N[C@@H](CCCCN)C(=O)N[C@@H](CCC(=O)O)C(=O)N[C@@H](CCC(N)=O)C(=O)N[C@@H](CCCCN)C(=O)N[C@@H](Cc1ccc(O)cc1)C(=O)N[C@@H](CO)C(=O)N[C@@H](Cc1ccccc1)C(=O)N[C@@H](CC(C)C)C(=O)N[C@@H](CCC(N)=O)C(=O)N[C@@H](CC(N)=O)C(=O)N1CCC[C@H]1C(=O)N[C@@H](CCC(N)=O)C(=O)N[C@H](C(N)=O)[C@@H](C)O [S1H]
